Data reported in patent publication US11090304B2 (Amgen Inc., priority 2018, dated 2021).
Where two headings read alike, the source gives them in different places.

Experiments:
[1] = molecular target: GDP-bound KRAS protein (aa 1-169), containing both G12C and C118A amino acid substitutions (Homo sapiens, UniProt P01116, C118A/G12C); assay: Coupled nucleotide exchange assay (SOS-mediated, AlphaScreen); format: biochemical; details: 5 min compound pre-incubation
[2] = tested on: Phosphorylation of ERK1/2 in MIA PaCa-2 cells; assay: Phospho-ERK1/2 MSD assay in MIA PaCa-2 cells; format: cell-based; details: read-out: p-ERK IC50 (2 h; MIA PaCa-2), 2 h compound treatment
Summary of the method: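 Following a 2 or 4 h incubation with titrated compound, cells receive a 10 min pulse of 10 ng/mL EGF. Phospho-ERK1/2 in RIPA lysates is then quantified by MSD immunoassay, and IC50 values come from a four-parameter logistic model.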

GDP-bound KRAS protein (aa 1-169), containing both G12C and C118A amino acid substitutions, sequence (P01116 1-169 isoform P01116-2 G12C/C118A): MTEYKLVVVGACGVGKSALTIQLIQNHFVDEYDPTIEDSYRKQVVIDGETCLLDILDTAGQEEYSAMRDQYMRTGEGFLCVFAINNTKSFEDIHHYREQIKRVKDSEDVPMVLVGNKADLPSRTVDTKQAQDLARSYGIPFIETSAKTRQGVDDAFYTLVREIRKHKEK

Structure (SMILES)	Coupled exchange IC50 (5 min) [1]	IC50 ([2]; Homo sapiens, MIA PaCa-2, 2 h) [nM]	IC50 [2] [nM]
C=CC(=O)N1CCN(c2nc(=S)n(-c3c(CC)cccc3CC)c3cc(-c4ccccc4F)c(Cl)cc23)[C@@H](C)C1 [Example 116, 1-((3S)-4-(6-Chloro-1-(2,6-diethylphenyl)-7-(2-fluorophenyl)-2-sulfanylidene-1,2-dihydro-4-quinazolinyl)-3-methyl-1-piperazinyl)-2-propen-1-one]	0.232 | nda μM	543	
C=CC(=O)N1CCN(c2nc(=O)n(-c3c(C(C)C)ncnc3N(C)C)c3nc(-c4ccccc4F)c(Cl)cc23)[C@@H](C)C1 [Example 140, 6-Chloro-1-(4-(dimethylamino)-6-(2-propanyl)-5-pyrimidinyl)-7-(2-fluorophenyl)-4-((2S)-2-methyl-4-(2-propenoyl)-1-piperazinyl)pyrido[2,3-d]pyrimidin-2(1H)-one]	0.09 | nda μM	96	
C=CC(=O)N1CCN(c2nc(=O)n(-c3ccccc3C(C)C)c3nc(-c4nc(N)cc5ccccc45)c(Cl)cc23)[C@@H](C)C1 [Example 70-2, 7-(3-amino-1-isoquinolinyl)-6-chloro-4-((2S)-2-methyl-4-(2-propenoyl)-1-piperazinyl)-1-(2-(2-propanyl)phenyl)pyrido[2,3-d]pyrimidin-2(1H)-one]	0.184 | nda μM	213	
C=CC(=O)N1CCN(c2nc(=O)n(-c3ccccc3C(C)C)c3nc(-c4nc(N)ccc4Cl)c(Cl)cc23)[C@@H](C)C1 [Example 70-1, 7-(6-Amino-3-chloro-2-pyrindinyl)-6-chloro-4-((2S)-2-methyl-4-(2-propenoyl)-1-piperazinyl)-1-(2-(2-propanyl)phenyl)pyrido[2,3-d]pyrimidin-2(1H)-one]	0.225 | nda μM	225	
C=CC(=O)N1CCN(c2nc(=O)n(-c3c(CO)cccc3C(C)C)c3nc(-c4ccccc4F)c(Cl)cc23)[C@@H](C)C1 [Example 55-43, 6-chloro-7-(2-fluorophenyl)-1-(2-(hydroxymethyl)-6-(2-propanyl)phenyl)-4-((2S)-2-methyl-4-(2-propenoyl)-1-piperazinyl)pyrido[2,3-d]pyrimidin-2(1H)-one]	0.073 | nda μM	70	
C=CC(=O)N1CCN(c2nc(=O)n(-c3ccccc3C3(C)CC3)c3nc(-c4ccccc4F)c(Cl)cc23)[C@@H](C)C1 (single isomer, unassigned) [Example 54-99-2]	0.094 | nda μM	174	
C=CC(=O)N1CCN(c2nc(=O)n(-c3nccnc3C(C)C)c3nc(-c4c(O)cccc4F)c(F)cc23)[C@@H](C)C1 [Example 57-3, 6-fluoro-7-(2-fluoro-6-hydroxyphenyl)-4-((2S)-2-methyl-4-(2-propenoyl)-piperazinyl)-1-(3-(2-propanyl)-2-pyrazinyl)pyrido[2,3-d]pyrimidin-2(1H)-one]	0.664 | nda μM	241	
C=CC(=O)N1CCN(c2nc(=O)n(-c3c(C)ccnc3C(C)C)c3nc(-c4ccccc4F)c(Cl)cc23)[C@H](C(F)F)C1 (single isomer, unassigned) [Example 78-3]	0.141 | nda μM	246	
C=CC(=O)N1CCN(c2nc(=O)n(-c3c(C)cccc3C(C)C)c3cc(-c4c(O)cccc4F)c(Cl)cc23)[C@@H](C)C1 [Example 106, 6-Chloro-7-(2-fluoro-6-hydroxyphenyl)-1-(2-methyl-6-(2-propanyl)phenyl)-4-((2S)-2-methyl-4-(2-propenoyl)-1-piperazinyl)-2(1H)-quinazolinone]	0.074 | nda μM	105	
C=CC(=O)N1CCN(c2nc(=O)n(-c3ncccc3CC)c3nc(-c4c(O)cccc4F)c(Cl)cc23)[C@@H](C)C1 [Example 54-16, 6-chloro-1-(3-ethyl-2-pyridinyl)-7-(2-fluoro-6-hydroxyphenyl)-4-((2S)-2-methyl-4-(2-propenoyl)-1-piperazinyl) pyrido[2,3-d]pyrimidin-2(1H)-one]	0.149 | nda μM	149	
C=CC(=O)N1CCN(c2nc(=O)n(-c3c(C)ccnc3C(C)C)c3nc(-c4cc(F)c(F)cc4O)c(F)cc23)[C@@H](C)C1 (atropisomer, axis not shown; (M)) [Example 72-2, (M)-7-(4,5-difluoro-2-hydroxyphenyl)-6-fluoro-1-(4-methyl-2-(2-propanyl)-3-pyridinyl)-4-((2S)-2-methyl-4-(2-propenoyl)-1-piperazinyl)pyrido[2,3-d]pyrimidin-2(1H)-one]	0.534 | nda μM	595	
C=CC(=O)N1CCN(c2nc(=O)n(-c3c(C(C)C)ccnc3C)c3nc(-c4ccccc4F)c(Cl)cc23)[C@@H](C)C1 (single isomer, unassigned) [Example 54-18-1]	0.044 | nda μM		36
C=CC(=O)N1CCN(c2nc(=O)n(-c3ncccc3C(C)C)c3cc(-c4ccccc4F)c(Cl)cc23)[C@@H](C)C1 [Example 104, 6-Chloro-7-(2-fluorophenyl)-4-((2S)-2-methyl-4-(2-propenoyl)-1-piperazinyl)-1-(3-(2-propanyl)-2-pyridinyl)-2(1H)-quinazolinone]	0.062 | nda μM	78	
C=CC(=O)N1CCN(c2nc(=O)n(-c3c(C)ncnc3C(C)C)c3nc(-c4cc(C)ccc4F)c(Cl)cc23)[C@@H](C)C1 (single isomer, unassigned) [Example 55-40-2]	0.078 | nda μM	81	
C=CC(=O)N1CCN(c2nc(=O)n(-c3ncnn3C(C)C)c3nc(-c4ccccc4F)c(Cl)cc23)[C@@H](C)C1 [Example 55-41, 6-chloro-7-(2-fluorophenyl)-4-((2S)-2-methyl-4-(2-propenoyl)-1-piperazinyl)-1-(1-(2-propanyl)-1H-1,2,4-triazol-5-yl)pyrido[2,3-d]pyrimidin-2(1H)-one]	0.292 | nda μM	908	
C=CC(=O)N1CCN(c2nc(=O)n(-c3c(C)cccc3C3CC3)c3nc(-c4ccccc4F)c(Cl)cc23)[C@@H](C)C1 [Example 56-5, 6-chloro-1-(2-cyclopropyl-6-methylphenyl)-7-(2-fluorophenyl)-4-((2S)-2-methyl-4-(2-propenoyl)-1-piperazinyl)pyrido[2,3-d]pyrimidin-2(1H)-one]	0.433 | nda μM	740	
C=CC(=O)N1CCN(c2nc(=O)n(-c3cccnc3C(C)C)c3nc(-c4ccccc4F)c(Cl)cc23)[C@@H](C)C1 (single isomer, unassigned) [Example 54-9-2]	0.046 | nda μM		34
C=CC(=O)N1CCN(c2nc(=O)n(-c3ccccc3C3CCC3)c3nc(-c4c(O)cccc4F)c(Cl)cc23)[C@@H](C)C1 (single isomer, unassigned) [Example 54-10-2]	0.071 | nda μM	60	
C=CC(=O)N1CCN(c2nc(=O)n(-c3c(C)ccnc3C(C)C)c3nc(-c4c(O)ccc(F)c4F)c(F)cc23)[C@@H](C)C1 (atropisomer, axis not shown; (M)) [Example 72-8, (M)-7-(2,3-difluoro-6-hydroxyphenyl)-6-fluoro-1-(4-methyl-2-(2-propanyl)-3-pyridinyl)-4-((2S)-2-methyl-4-(2-propenoyl)-1-piperazinyl)pyrido[2,3-d]pyrimidin-2(1H)-one]	0.042 | nda μM	91	
C=CC(=O)N1CCN(c2nc(=O)n(-c3c(OC)cccc3C(C)C)c3nc(-c4c(O)cccc4F)c(Cl)cc23)[C@@H](C)C1 (single isomer, unassigned) [Example 54-73-1]	0.025 | nda μM		38
C=CC(=O)N1CCN(c2nc(=O)n(-c3c(C)ccnc3C(C)C)c3nc(-c4cc(O)cc(Cl)c4Cl)c(F)cc23)[C@@H](C)C1 [Example 58-7, 7-(2,3-dichloro-5-hydroxyphenyl)-6-fluoro-1-(4-methyl-2-(2-propanyl)-3-pyridinyl)-4-((2S)-2-methyl-4-(2-propenoyl)-1-piperazinyl)pyrido[2,3-d]pyrimidin-2(1H)-one]	0.072 | nda μM	1990	
C=CC(=O)N1CCN(c2nc(=O)n(-c3c(C)ccnc3C(C)C)c3nc(-c4cc(OC(F)(F)F)ccc4F)c(Cl)cc23)[C@@H](C)C1 (atropisomer, axis not shown; (M)) [Example 73-7, (M)-6-chloro-7-(2-fluoro-5-(trifluoromethoxy)phenyl)-1-(4-methyl-2-(2-propanyl)-3-pyridinyl)-4-((2S)-2-methyl-4-(2-propenoyl)-1-piperazinyl)pyrido[2,3-d]pyrimidin-2(1H)-one]	0.241 | nda μM	375	
C=CC(=O)N1CCN(c2nc(=O)n(-c3c(C(C)C)ccnc3C)c3nc(-c4ccccc4F)c(Cl)cc23)[C@@H](C)C1 [Example 54-18, 6-chloro-7-(2-fluorophenyl)-1-(2-methyl-4-(2-propanyl)-3-pyridinyl)-4-((2S)-2-methyl-4-(2-propenoyl)-1-piperazinyl) pyrido[2,3-d]pyrimidin-2(1H)-one]	0.087 | nda μM	81	
C=CC(=O)N1CCN(c2nc(=O)n(-c3c(C)ccnc3C(C)C)c3nc(-c4c(O)cccc4F)c(F)cc23)C[C@H]1C (single isomer, unassigned) [Example 75-2]	0.493 | nda μM	306	
C=CC(=O)N1CCN(c2nc(=O)n(-c3c(C)ccnc3C(C)C)c3nc(-c4ccc(F)cc4F)c(F)cc23)[C@@H](C)C1 (single isomer, unassigned) [Example 58-10-1]	0.264 | nda μM	257	
